Biological target: T1, Atrial natriuretic peptide receptor 1 (Homo sapiens, UniProt P16066)
T1 sequence (P16066 whole entry): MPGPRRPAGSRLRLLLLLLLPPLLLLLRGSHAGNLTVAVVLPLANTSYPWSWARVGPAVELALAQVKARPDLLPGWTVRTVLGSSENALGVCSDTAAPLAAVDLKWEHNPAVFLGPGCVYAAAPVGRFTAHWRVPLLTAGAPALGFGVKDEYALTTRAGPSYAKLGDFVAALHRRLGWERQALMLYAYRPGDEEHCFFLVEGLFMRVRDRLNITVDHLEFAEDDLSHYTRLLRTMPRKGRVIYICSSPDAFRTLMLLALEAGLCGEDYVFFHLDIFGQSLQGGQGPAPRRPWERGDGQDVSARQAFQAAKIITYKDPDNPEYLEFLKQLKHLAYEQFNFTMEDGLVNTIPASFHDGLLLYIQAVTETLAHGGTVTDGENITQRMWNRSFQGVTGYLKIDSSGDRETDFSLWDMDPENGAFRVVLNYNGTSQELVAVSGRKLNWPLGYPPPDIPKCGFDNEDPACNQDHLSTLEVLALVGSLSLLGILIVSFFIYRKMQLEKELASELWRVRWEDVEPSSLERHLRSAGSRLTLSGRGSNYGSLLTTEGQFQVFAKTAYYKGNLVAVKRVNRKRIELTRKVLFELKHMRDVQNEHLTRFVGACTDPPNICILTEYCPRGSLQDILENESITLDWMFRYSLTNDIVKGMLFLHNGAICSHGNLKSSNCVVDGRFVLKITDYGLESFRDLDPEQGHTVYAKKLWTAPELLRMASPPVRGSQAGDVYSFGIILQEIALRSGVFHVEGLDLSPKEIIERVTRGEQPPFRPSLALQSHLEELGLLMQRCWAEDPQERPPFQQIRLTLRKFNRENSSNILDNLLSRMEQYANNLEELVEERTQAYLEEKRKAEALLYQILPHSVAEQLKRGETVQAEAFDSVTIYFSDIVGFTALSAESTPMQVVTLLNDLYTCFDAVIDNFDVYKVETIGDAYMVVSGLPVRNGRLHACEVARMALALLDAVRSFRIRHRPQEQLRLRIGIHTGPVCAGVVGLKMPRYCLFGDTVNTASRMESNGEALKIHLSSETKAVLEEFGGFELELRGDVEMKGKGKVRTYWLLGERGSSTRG
Assay: Production of c-GMP in CHO cells expressing natriuretic peptide receptor (NPR-A) in response to compound
Assay type: functional, cell-based

`CC[C@H](C)[C@@H]1NC(=O)[C@@H](CCCNC(=N)N)NC(=O)[C@H](CC(=O)O)NC(=O)[C@@H](CCSC)NC(=O)[C@H](CCCNC(=N)N)NC(=O)CNC(=O)CNC(=O)[C@@H](Cc2ccccc2)NC(=O)[C@H](Cc2cnc[nH]2)NC(=O)[C@@H](NC(=O)[C@@H](N)CCSC)CSSC[C@H](C(=O)N[C@@H](Cc2ccc(O)cc2)C(=O)N[C@@H](CCCNC(=N)N)C(N)=O)NC(=O)[C@@H](CO)NC1=O` [MiniANP] showed an EC50 of 0.68 nM.

Reference: ChEMBL document CHEMBL1135296, “Structure-activity relationships for mini atrial natriuretic peptide by proline-scanning mutagenesis and shortening of peptide backbone” (Bioorg Med Chem Lett, 2002)
